Laboratory results: US20240024647A1, “MUCOSA PERFORATION” (LTS LOHMANN THERAPIE-SYSTEME AG, priority 2020, published 2024)
Where a name gives a salt, the structure may show the parent alone.

Key:
[1] = Solubility of the active ingredient in the acceptor medium; assay type: physicochemical
[2] = In vitro permeation by Franz diffusion cells, mucosa with versus without steel microneedle system (AdminPatch)
Procedure: (§1) The following test series with the selected active ingredients in each case were performed within the scope of a typical in vitro permeation by means of Franz diffusion cells (volume 10 mL) at 37° C. The used acceptor medium was replaced completely for a new one at predetermined replacement times, and the content of permeated active ingredient amount in these acceptor solutions was determined by means of HPLC.
The contact pressure was 3 N by thumb pressure, monitored by means of a Roberval balance. The pressing time was 10 sec.
A total of 187 microneedles were applied to an area of 0.785 cm^2 (microneedle density=238 per cm^2).
For Example 4, the donor solution was injected (900 μl) onto or into the used dentistry tamponade (length and diameter 1 cm each). The microneedle system was fixed to the underside of the tamponade and was applied to the mucosa surface perpendicularly through the head of the Franz cells and fixed in a defined position by a suitable stopper and with moderate pressure.
Phosphate buffer (pH 5.5) was used as acceptor medium and an addition of 2 wt. % Tween® 20 was used as organic solvent to maintain “sink” conditions. (sink=current solubility at time t of an active ingredient in an acceptor medium of at most 30% of its saturation solubility in this acceptor medium)
A saturated solution of riociguat in clove oil (Primavera® clove bud organic essential oil, Oy-Mittelberg, Germany) was used as donor solution.
(§2) Dermatomised skin from the oesophagus of a pig with a layer thickness of 400 μm was used as skin model.
0.025 molar HEPES buffer (pH 7.4) was used as acceptor medium.
Phosphate buffer (pH 5.5) was used as acceptor medium and an addition of 2 wt. % Tween® 20 was used as organic solvent to maintain “sink” conditions. […]
The surface of the mucosa was treated with the “AdminPatch™” microneedle system (needle length 600 μm) from the company “nanobioSciences” (CA, USA) made of steel with a contact pressure of 3 N by thumb pressure, monitored by means of a Roberval balance for 10 sec. […]

[3] = In vitro permeation by Franz diffusion cells, dissolving microneedle system loaded with active ingredient, applied into the mucosa versus in reverse
Procedure: as §1, with “HPLC. […]” for “HPLC.”
For preparation, sumatriptan succinate, polyvinylpyrrolidone, Polysorbate 80 and glycerol were dissolved in water with the proportions 5:20:1:1:73 (in each case in wt. %). The finished solution was poured into negative needle moulds made of silicone, the surface of which was coated with a thin platinum layer by vacuum metallisation. The negative moulds were then dried overnight at room temperature. The dried microneedle systems were carefully pressed out from the dies after the drying process and stored under exclusion of moisture until their further use. The active ingredient content was 4.25 mg sumatriptan succinate per 0.785 cm^2 of system or 5.41 mg/cm^2.
The length of the microneedles of the used microneedle system was 500 μm. A total of 600 microneedles were applied to an area of 0.785 cm^2 (microneedle density=764 per cm^2).
as §2
The microneedle system remained in the mucosa throughout the permeation period, the cell head additionally also having been filled with lead balls in order to simulate the in vivo contact pressure (for example between mandible and oral mucosa) in the oral cavity. As protection for the dissolving microneedle system, a separation film based on siliconised PET (polyethylene terephthalate) was also introduced in between in front of the lead balls.

[4] = dissolving microneedle system loaded with sumatriptan base, acceptor phosphate buffer pH 6.0 + 2 wt. % Tween 20, FIG. 9

## CN1CCc2cccc3c2[C@H]1Cc1ccc(O)c(O)c1-3 [apomorphine hydrochloride]
[1]; phosphate buffer (pH 6.8) with 0.1 wt. % L-ascorbic acid
  solubility in acceptor medium: very easily dissolved

## C=C(C)[C@@H]1CCC(C)=C[C@H]1c1c(O)cc(CCCCC)cc1O [cannabidiol]
[2]; saturated cannabidiol solution in clove oil, dentistry tamponade with microneedle system, acceptor phosphate buffer pH 5.5 + 2 wt. % Tween 20, FIG. 4
  active ingredient flux after pretreatment with a microneedle system, factor higher in comparison to administration without pretreatment: 2.0

## CNS(=O)(=O)Cc1ccc2[nH]cc(CCN(C)C)c2c1 [sumatriptan base]
[3]; [4]
  active ingredient flux in the comparative example (system applied in reverse, not penetrating into the mucosa): not possible to measure an active ingredient flux
  active ingredient flux with the microneedle system applied in the mucosa: high active ingredient flux could be observed
[1]; phosphate buffer (pH 6.0) with 2 wt. % Tween 20
  solubility in acceptor medium: very easily dissolved

## CNS(=O)(=O)Cc1ccc2[nH]cc(CCN(C)C)c2c1 [sumatriptan succinate]
[3]; pig, 10 min, pH 7.4
  first permeation value after 10 min, factor higher in comparison to the comparative example: approximately 4
[3]; pig, pH 7.4
  active ingredient flux with the microneedle system applied in the mucosa, factor higher in comparison to the system without penetration into the mucosa: 2.0
[1]; phosphate buffer (pH 7.4) without further additives
  solubility in acceptor medium: very easily dissolved

## CCCCCc1cc(O)c2c(c1)OC(C)(C)[C@@H]1CCC(C)=C[C@@H]21 [tetrahydrocannabinol]
[2]; saturated tetrahydrocannabinol solution in clove oil, acceptor phosphate buffer pH 5.5 + 2 wt. % Tween 20, FIG. 3
  time after which permeated active ingredient could be detected without pretreatment: 3 h
[2]; saturated tetrahydrocannabinol solution in clove oil, value after 3 hours, FIG. 3
  permeated active ingredient without pretreatment, factor lower in comparison to pretreated mucosa: 5

## CC(=O)O[C@]1(C(C)=O)CC[C@H]2[C@@H]3CCC4=CC(=O)CCC4=C3[C@@H](c3ccc(N(C)C)cc3)C[C@@]21C [ulipristal acetate]
[1]; phosphate buffer (pH 7.4) with 2 wt. % Tween 20
  solubility in acceptor medium: very easily dissolved
